# Measurements taken from ChEMBL document CHEMBL1149081, “Identification and structure-activity relationships of ortho-biphenyl carboxamides as potent Smoothened antagonists inhibiting the Hedgehog signaling pathway” (Bioorg Med Chem Lett, 2009).
# pIC50: −log10 of the molar value.
# Legend:
# [1] = Inhibition of Hedgehog signaling pathway in mouse TM3 cells bearing pTA-8xGli-Luc reporter construct assessed as transcriptional modulation of Gli after 48 hrs by luciferase assay; settings: TM3, 48 h
# Protein smoothened [2] = molecular target: Protein smoothened (Mus musculus, UniProt P56726); assay: Antagonist activity at mouse Smo receptor expressed in CHO cells by [3H]Hh-Ag binding assay; format: cell-based
# [3] = molecular target: T1, Microsomal triglyceride transfer protein large subunit (Homo sapiens, UniProt P55157); assay: Inhibition of MTP in human HepG2 cells assessed as apolipoprotein B production by ELISA; format: cell-based
# T1 sequence (P55157 whole entry): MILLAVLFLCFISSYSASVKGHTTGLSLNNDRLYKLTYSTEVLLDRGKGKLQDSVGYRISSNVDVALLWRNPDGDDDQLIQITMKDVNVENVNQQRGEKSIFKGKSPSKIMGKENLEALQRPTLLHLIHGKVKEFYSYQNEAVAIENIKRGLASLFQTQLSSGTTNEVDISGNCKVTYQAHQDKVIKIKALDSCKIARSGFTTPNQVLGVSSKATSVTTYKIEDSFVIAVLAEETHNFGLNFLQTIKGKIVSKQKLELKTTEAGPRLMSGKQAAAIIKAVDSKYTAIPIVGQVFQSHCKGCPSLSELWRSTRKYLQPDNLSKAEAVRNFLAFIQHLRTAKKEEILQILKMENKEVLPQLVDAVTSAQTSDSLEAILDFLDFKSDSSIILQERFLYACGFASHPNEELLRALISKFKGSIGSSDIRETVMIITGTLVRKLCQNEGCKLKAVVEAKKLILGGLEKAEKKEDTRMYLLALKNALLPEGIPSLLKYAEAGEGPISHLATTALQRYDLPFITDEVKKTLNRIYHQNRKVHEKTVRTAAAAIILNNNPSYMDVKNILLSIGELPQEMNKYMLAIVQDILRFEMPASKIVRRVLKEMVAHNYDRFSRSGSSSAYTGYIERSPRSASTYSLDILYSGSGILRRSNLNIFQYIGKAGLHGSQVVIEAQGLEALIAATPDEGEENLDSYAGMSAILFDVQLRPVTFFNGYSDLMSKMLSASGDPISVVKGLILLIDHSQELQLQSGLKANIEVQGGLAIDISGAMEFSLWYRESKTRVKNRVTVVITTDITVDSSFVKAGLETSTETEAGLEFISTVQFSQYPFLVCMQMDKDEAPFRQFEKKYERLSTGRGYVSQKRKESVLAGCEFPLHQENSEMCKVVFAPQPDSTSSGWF
# Protein smoothened [4] = molecular target: Protein smoothened (Homo sapiens, UniProt Q99835); assay: Antagonist activity at human Smo receptor expressed in CHO cells by [3H]Hh-Ag binding assay; format: cell-based
# Sequence of Protein smoothened (Homo sapiens, UniProt Q99835) (Q99835 whole entry): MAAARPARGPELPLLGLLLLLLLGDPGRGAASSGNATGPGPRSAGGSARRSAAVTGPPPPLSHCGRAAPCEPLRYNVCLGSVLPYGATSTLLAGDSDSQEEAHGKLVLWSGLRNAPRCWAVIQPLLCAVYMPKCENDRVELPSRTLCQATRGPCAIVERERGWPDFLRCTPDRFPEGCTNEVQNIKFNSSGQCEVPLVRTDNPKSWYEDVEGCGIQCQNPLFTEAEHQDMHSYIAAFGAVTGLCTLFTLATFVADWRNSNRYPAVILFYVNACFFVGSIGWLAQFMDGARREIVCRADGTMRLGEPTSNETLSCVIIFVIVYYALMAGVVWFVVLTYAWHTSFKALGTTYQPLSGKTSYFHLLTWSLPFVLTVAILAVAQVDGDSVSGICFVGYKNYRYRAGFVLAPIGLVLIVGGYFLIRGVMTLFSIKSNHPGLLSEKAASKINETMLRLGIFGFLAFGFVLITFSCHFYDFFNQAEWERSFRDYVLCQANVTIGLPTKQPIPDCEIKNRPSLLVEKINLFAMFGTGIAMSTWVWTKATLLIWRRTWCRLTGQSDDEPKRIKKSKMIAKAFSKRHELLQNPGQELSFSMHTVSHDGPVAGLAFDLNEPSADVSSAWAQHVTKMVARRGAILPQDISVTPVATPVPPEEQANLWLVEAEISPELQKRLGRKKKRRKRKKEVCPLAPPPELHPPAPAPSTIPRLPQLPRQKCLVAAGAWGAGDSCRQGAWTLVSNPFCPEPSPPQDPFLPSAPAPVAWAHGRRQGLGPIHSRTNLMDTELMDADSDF
# Sequence of Protein smoothened (Mus musculus, UniProt P56726) (P56726 whole entry): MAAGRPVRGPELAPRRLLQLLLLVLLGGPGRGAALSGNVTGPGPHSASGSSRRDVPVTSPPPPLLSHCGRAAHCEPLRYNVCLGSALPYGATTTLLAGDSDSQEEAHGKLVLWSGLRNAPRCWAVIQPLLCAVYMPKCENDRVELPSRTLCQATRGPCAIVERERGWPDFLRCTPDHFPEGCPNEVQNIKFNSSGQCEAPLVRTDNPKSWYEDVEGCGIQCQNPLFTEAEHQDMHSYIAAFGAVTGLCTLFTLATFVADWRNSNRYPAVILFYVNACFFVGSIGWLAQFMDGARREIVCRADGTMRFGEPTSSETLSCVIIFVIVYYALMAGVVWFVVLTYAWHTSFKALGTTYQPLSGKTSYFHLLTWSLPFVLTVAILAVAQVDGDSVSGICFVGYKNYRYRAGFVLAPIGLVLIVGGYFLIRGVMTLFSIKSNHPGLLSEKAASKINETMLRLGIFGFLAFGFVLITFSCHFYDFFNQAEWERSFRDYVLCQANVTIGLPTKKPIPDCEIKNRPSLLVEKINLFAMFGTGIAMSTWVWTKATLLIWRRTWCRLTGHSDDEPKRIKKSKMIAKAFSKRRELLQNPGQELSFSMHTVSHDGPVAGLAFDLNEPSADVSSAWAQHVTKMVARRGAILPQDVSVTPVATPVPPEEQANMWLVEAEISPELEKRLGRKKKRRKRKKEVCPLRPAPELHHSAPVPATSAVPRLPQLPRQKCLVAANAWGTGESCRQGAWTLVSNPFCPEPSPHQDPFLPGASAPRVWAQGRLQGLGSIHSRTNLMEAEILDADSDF
pIC50 [1],pIC50 (Protein smoothened [2]),pIC50 [3],pIC50 (Protein smoothened [4]),Compound
5.67,5.29,8.37,5.12,COC(=O)N[C@H]1Cc2ccc(NC(=O)c3cccc(C)c3-c3ccc(C(F)(F)F)cc3)cc2C1
7.00,7.24,5.63,6.92,Cc1cccc(C(=O)Nc2ccc3c(c2)C[C@@H](NCc2ccccn2)C3)c1-c1ccc(C(F)(F)F)cc1
5.31,5.06,8.46,,Cc1cccc(C(=O)Nc2ccc3c(c2)C[C@H](NCc2ccccn2)C3)c1-c1ccc(C(F)(F)F)cc1
5.92,5.61,9.05,5.47,COC(=O)N[C@@H]1Cc2ccc(NC(=O)c3cccc(C)c3-c3ccc(C(F)(F)F)cc3)cc2C1
7.48,7.24,,7.26,Cc1cccc(C(=O)Nc2ccc3c(c2)C[C@@H](NC(c2ccccc2)C(F)(F)F)C3)c1-c1ccc(C(F)(F)F)cc1 (some centres not stated)
5.89,6.46,,6.68,Cc1cccc(C(=O)Nc2ccc3c(c2)C[C@@H](NCc2cnc4ccccc4c2)C3)c1-c1ccc(C(F)(F)F)cc1
8.10,8.22,,8.00,Cc1ccc(CN[C@H]2Cc3ccc(NC(=O)c4cccc(C)c4-c4ccc(C(F)(F)F)cc4)cc3C2)o1
5.43,4.78,,,Cc1cccc(C(=O)Nc2ccc3c(c2)C[C@@H](NCC2CCOC2)C3)c1-c1ccc(C(F)(F)F)cc1 (some centres not stated)
6.44,7.03,,6.92,COc1ccc(CN[C@H]2Cc3ccc(NC(=O)c4cccc(C)c4-c4ccc(C(F)(F)F)cc4)cc3C2)cc1
7.68,8.10,,7.85,Cc1cccc(C(=O)Nc2ccc3c(c2)C[C@@H](NCc2ccccc2)C3)c1-c1ccc(C(F)(F)F)cc1
6.82,6.72,,6.62,Cc1cccc(C(=O)Nc2ccc3c(c2)C[C@@H](NCc2ccncc2)C3)c1-c1ccc(C(F)(F)F)cc1
7.06,7.54,,7.49,Cc1cccc(C(=O)Nc2ccc3c(c2)C[C@@H](NC(C)c2ccccc2)C3)c1-c1ccc(C(F)(F)F)cc1 (some centres not stated)
7.39,7.09,,6.89,Cc1cccc(C(=O)Nc2ccc3c(c2)C[C@@H](Nc2ccccc2)C3)c1-c1ccc(C(F)(F)F)cc1
8.00,8.05,,8.15,Cc1cccc(C(=O)Nc2ccc3c(c2)C[C@@H](NCc2cccs2)C3)c1-c1ccc(C(F)(F)F)cc1
7.77,8.40,,8.15,Cc1csc(CN[C@H]2Cc3ccc(NC(=O)c4cccc(C)c4-c4ccc(C(F)(F)F)cc4)cc3C2)n1
6.80,6.92,,6.77,Cc1cccc(C(=O)Nc2ccc3c(c2)C[C@@H](NCc2scnc2C)C3)c1-c1ccc(C(F)(F)F)cc1
5.37,5.92,,6.11,Cc1cccc(C(=O)Nc2ccc3c(c2)C[C@H](NCc2nccs2)C3)c1-c1ccc(C(F)(F)F)cc1
7.60,8.00,,7.52,Cc1cccc(C(=O)Nc2ccc3c(c2)C[C@@H](NCc2nccs2)C3)c1-c1ccc(C(F)(F)F)cc1
6.35,6.44,,6.47,CC(=O)Nc1ccc(CN[C@H]2Cc3ccc(NC(=O)c4cccc(C)c4-c4ccc(C(F)(F)F)cc4)cc3C2)cc1
7.64,7.85,,,Cc1cccc(C(=O)Nc2ccc3c(c2)C[C@@H](NCc2ccco2)C3)c1-c1ccc(C(F)(F)F)cc1
5.31,5.57,,,O=C(Nc1ccc2c(c1)CC(NCc1ccccn1)C2)c1ccccc1-c1ccc(Cl)cc1 (racemic)
5.88,5.53,,5.57,COC(=O)NC1Cc2ccc(NC(=O)c3cccc(C)c3-c3ccc(C(F)(F)F)cc3)cc2C1 (racemic)
6.22,,,,Cc1cccc(C(=O)Nc2ccc3c(c2)CC(NC(=O)c2ccccc2)C3)c1-c1ccc(C(F)(F)F)cc1 (racemic)
6.70,6.31,,6.10,O=C(Nc1ccc2c(c1)CC(NCc1ccccn1)C2)c1ccccc1-c1ccc(C(F)(F)F)cc1 (racemic)
7.03,,,,Cc1cccc(C(=O)Nc2ccc3c(c2)CC(NCc2ccccc2)C3)c1-c1ccc(C(F)(F)F)cc1 (racemic)
7.00,6.96,,,Cc1cccc(C(=O)Nc2ccc3c(c2)CC(NCc2ccccn2)C3)c1-c1ccc(C(F)(F)F)cc1 (racemic)
5.17,5.06,,,Cc1ccc(-c2ccc(C(F)(F)F)cc2)c(C(=O)Nc2ccc3c(c2)CC(NCc2ccccn2)C3)c1 (racemic)
5.90,,,,Cc1cccc(C(=O)Nc2ccc3c(c2)CC(NS(=O)(=O)c2ccccc2)C3)c1-c1ccc(C(F)(F)F)cc1 (racemic)
6.00,5.85,,5.94,O=C(Nc1ccc2c(c1)CC(NCc1ccccn1)C2)c1ccccc1-c1ccccc1 (racemic)
< 5.30,< 5.30,,,COc1ccc(-c2ccc(C(F)(F)F)cc2)c(C(=O)Nc2ccc3c(c2)CC(NCc2ccccn2)C3)c1 (racemic)

Compound,pIC50 [1],pIC50 (Protein smoothened [2]),pIC50 [3],pIC50 (Protein smoothened [4])
CC1=C2C[C@H]3[C@@H](CC=C4C[C@@H](O)CC[C@@]43C)[C@@H]2CC[C@]12O[C@@H]1C[C@H](C)CN[C@H]1[C@H]2C [CYCLOPAMINE],7.34,,,
